According to patent US20230114728A1 (Venatorx Pharmaceuticals, Inc., priority 2019, published 2023):
In brackets after ≈: the same amount, converted by molar mass.

Legend:
P. aeruginosa CDC-0110 = test: Broth microdilution MIC in iron-depleted CAMHB (IDM); assay type: cell-based; conditions: Pseudomonas aeruginosa, CDC0110, read-out: Minimum Inhibitory Concentration, P. aeruginosa CDC-0110
In short: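 MIC is the lowest well showing no visible growth after 16-20 h at 37 °C, starting from 2-8×10^5 CFU/mL in 2-fold serial compound dilutions. Medium: cation-adjusted Mueller Hinton broth iron-depleted with Chelex 100, supplemented back with Ca, Mg and Zn, pH 7.3; CLSI protocol.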

[1] = system: P. aeruginosa CDC-0090 producing KPC-5, OXA-50, and PAO; test: as above; assay type: cell-based; conditions: Pseudomonas aeruginosa, read-out: Minimum Inhibitory Concentration, P. aeruginosa CDC-0090
In short: (§1)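 Iron-limited medium: CAMHB chelated with Chelex 100, cations restored, pH 7.3. CLSI-based microdilution, 2-8×10^5 CFU/mL inoculum, 37° C for 16-20 h (P. aeruginosa) or 20-24 h (A. baumannii). Endpoint is no visible growth.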

[2] = system: P. aeruginosa CDC-0095 producing OXA-50, and PAO; test: as above; assay type: cell-based; conditions: Pseudomonas aeruginosa, read-out: Minimum Inhibitory Concentration, P. aeruginosa CDC-0095
In short: as §1

[3] = Bocillin-FL fluorescence polarization competition binding assay, A. baumannii PBP3; conditions: fluorescence polarization competition binding assay using Bocillin-FL; column 3; read-out: 4. baumannii PBP1a Potency
In short: (§2)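 A. baumannii PBP2 (2.5 μM) and PBP3 (0.2 μM) were run in 25 mM Tris pH 8.0 buffer with Tween 20; E. coli PBP3 (1.5 μM) and N. gonorrhoeae PBP2 ([…]) in 50 mM Hepes pH 8.0 buffer.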

N. gonorrhoeae PBP2 = biological target: T1, N. gonorrhoeae PBP2 (Neisseria gonorrhoeae, UniProt P08149); test: Bocillin-FL fluorescence polarization competition binding assay, N. gonorrhoeae PBP2; conditions: fluorescence polarization competition binding assay using Bocillin-FL; read-out: N. gonorrhoeae PBP2 Potency
T1 construct: made in house
In short: as §2

[4] = system: A. baumannii CDC-0045 producing TEM-1D, OXA-23, and OXA-69; test: Broth microdilution MIC in iron-depleted CAMHB (IDM); assay type: cell-based; conditions: Acinetobacter baumannii, read-out: Minimum Inhibitory Concentration, CDC-0045

T1 sequence (P08149 whole entry): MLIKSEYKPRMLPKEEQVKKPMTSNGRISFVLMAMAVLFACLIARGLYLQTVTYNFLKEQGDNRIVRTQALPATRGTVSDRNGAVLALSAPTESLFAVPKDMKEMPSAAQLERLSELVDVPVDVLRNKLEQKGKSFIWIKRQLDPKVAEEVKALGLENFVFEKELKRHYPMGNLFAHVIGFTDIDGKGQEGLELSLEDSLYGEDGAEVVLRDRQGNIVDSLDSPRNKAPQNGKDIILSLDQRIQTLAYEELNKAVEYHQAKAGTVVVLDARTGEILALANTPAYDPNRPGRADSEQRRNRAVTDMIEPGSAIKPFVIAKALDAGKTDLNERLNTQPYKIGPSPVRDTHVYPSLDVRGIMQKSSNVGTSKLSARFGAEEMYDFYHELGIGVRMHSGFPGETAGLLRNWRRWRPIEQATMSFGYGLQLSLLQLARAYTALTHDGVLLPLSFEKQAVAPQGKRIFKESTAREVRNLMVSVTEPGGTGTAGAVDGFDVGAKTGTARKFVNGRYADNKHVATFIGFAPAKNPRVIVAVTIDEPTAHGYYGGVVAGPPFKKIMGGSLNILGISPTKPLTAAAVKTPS

Row | Compound | MIC (P. aeruginosa CDC-0110) [µg/mL] | MIC [1] [µg/mL] | MIC [2] [µg/mL] | EC50 [3] [µM] | EC50 (N. gonorrhoeae PBP2) [µM] | MIC [4] [µg/mL]
1 | CCN1CCN(C(=O)N[C@@H](C(=O)N[C@H]2Cc3cc(Cl)c(F)c(C(=O)O)c3OB2O)c2c(F)cc(O)c(O)c2Cl)C(=O)C1=O [Example 191, (R)-6-chloro-3-((R)-2-(2-chloro-6-fluoro-3,4-dihydroxyphenyl)-2-(4-ethyl-2,3-dioxopiperazine-1-carboxamido)acetamido)-7-fluoro-2-hydroxy-3,4-dihydro-2H-benzo[e][1,2]oxaborinine-8-carboxylic acid] | 2 to 4 (≈ 3.1 to 6.2 µM) | 8 to 16 (≈ 12.4 to 24.8 µM) | 8 to 16 (≈ 12.4 to 24.8 µM) | 30 to 100 | 30 to 100 | > 128
2 | NCCCN1CCN(C(=O)N[C@@H](C(=O)N[C@H]2Cc3cc(Cl)c(F)c(C(=O)O)c3OB2O)c2c(F)cc(O)c(O)c2Cl)C(=O)C1=O [Example 190, (R)-3-((R)-2-(4-(3-aminopropyl)-2,3-dioxopiperazine-1-carboxamido)-2-(2-chloro-6-fluoro-3,4-dihydroxyphenyl)acetamido)-6-chloro-7-fluoro-2-hydroxy-3,4-dihydro-2H-benzo[e][1,2]oxaborinine-8-carboxylic acid] | 2 to 4 (≈ 2.97 to 5.93 µM) | 0.5 to 1 (≈ 0.742 to 1.48 µM) | 8 to 16 (≈ 11.9 to 23.7 µM) | > 100 | > 100 | > 128
